Test results taken from ChEMBL document CHEMBL1146065, “Structure-based optimization of azole antifungal agents by CoMFA, CoMSIA, and molecular docking” (2006).
Converted amounts (≈) assume the structure as drawn.

Tests used:
Candida albicans = assay: Antifungal activity against Candida albicans; format: functional
Candida parapsilosis = assay: Antifungal activity against Candida parapsilosis; format: functional; details: Lodderomyces parapsilosis
Candida tropicalis = assay: Antifungal activity against Candida tropicalis; format: functional
Cryptococcus neoformans = assay: Antifungal activity against Cryptococcus neoformans; format: functional
Aspergillus fumigatus = assay: Antifungal activity against Aspergillus fumigatus; format: functional
Fonsecaea pedrosoi = assay: Antifungal activity against Fonsecaea pedrosoi; format: functional
Trichophyton rubrum = assay: Antifungal activity against Trichophyton rubrum; format: functional
Microsporum = assay: Antifungal activity against Microsporum lanosum; format: functional
Sporothrix schenckii = assay: Antifungal activity against Sporothrix schenckii; format: functional
Nannizzia gypsea = assay: Antifungal activity against Microsporum gypseum; format: functional
Trichophyton violaceum = assay: Antifungal activity against Trichophyton violaceum; format: functional
Trichophyton benhamiae = assay: Antifungal activity against Trichophyton mentagrophytes; format: functional, Arthroderma benhamiae
Epidermophyton floccosum = assay: Antifungal activity against Epidermophyton floccosum; format: functional

| SMILES | MIC80 (Candida albicans) [µg/mL] | MIC80 (Candida parapsilosis) [µg/mL] | MIC80 (Candida tropicalis) [µg/mL] | MIC80 (Cryptococcus neoformans) [µg/mL] | MIC80 (Aspergillus fumigatus) [µg/mL] | MIC80 (Fonsecaea pedrosoi) [µg/mL] | MIC80 (Trichophyton rubrum) [µg/mL] | MIC80 (Microsporum) [µg/mL] | MIC80 (Sporothrix schenckii) [µg/mL] | MIC80 (Nannizzia gypsea) [µg/mL] | MIC80 (Trichophyton violaceum) [µg/mL] | MIC80 (Trichophyton benhamiae) [µg/mL] | MIC80 (Epidermophyton floccosum) [µg/mL] |
| --- | --- | --- | --- | --- | --- | --- | --- | --- | --- | --- | --- | --- | --- |
| Cc1cccc(C(=O)Nc2ccc(CN(C)CC(O)(Cn3cncn3)c3ccc(F)cc3F)cc2)c1 (stereo not drawn) | 0.031 (≈ 0.0631 µM) | 0.0625 (≈ 0.127 µM) | 1 (≈ 2.03 µM) | 1 (≈ 2.03 µM) | 16 (≈ 32.6 µM) | 0.5 (≈ 1.02 µM) | ≤ 0.125 | 0.25 (≈ 0.509 µM) |  |  |  |  |  |
| CN(Cc1ccc(NC(=O)c2ccc(Cl)cc2Cl)cc1)CC(O)(Cn1cncn1)c1ccc(F)cc1F (stereo not drawn) | 0.016 (≈ 0.0293 µM) | 0.125 (≈ 0.229 µM) | 0.5 (≈ 0.915 µM) | 0.0625 (≈ 0.114 µM) | 16 (≈ 29.3 µM) | ≤ 0.125 | 0.5 (≈ 0.915 µM) | 0.5 (≈ 0.915 µM) |  |  |  |  |  |
| Cc1cccc(Cn2ncn(-c3ccc(CN(C)CC(O)(Cn4cncn4)c4ccc(F)cc4F)cc3)c2=O)c1 (stereo not drawn) | 0.004 (≈ 0.00733 µM) | 0.008 (≈ 0.0147 µM) | 0.125 (≈ 0.229 µM) | 1 (≈ 1.83 µM) | 16 (≈ 29.3 µM) | 1.25 (≈ 2.29 µM) | 0.5 (≈ 0.916 µM) |  | 64 (≈ 117 µM) |  |  |  |  |
| CN(Cc1ccc(-n2cnn(Cc3ccc(C(C)(C)C)cc3)c2=O)cc1)CC(O)(Cn1cncn1)c1ccc(F)cc1F (stereo not drawn) | 0.031 (≈ 0.0528 µM) | 4 (≈ 6.81 µM) | 1 (≈ 1.7 µM) | 2 (≈ 3.4 µM) | 8 (≈ 13.6 µM) | 0.25 (≈ 0.425 µM) | 0.5 (≈ 0.851 µM) |  | 32 (≈ 54.5 µM) |  |  |  |  |
| CN(Cc1ccc(NC(=O)c2ccccc2)cc1)CC(O)(Cn1cncn1)c1ccc(F)cc1F (stereo not drawn) | 0.031 (≈ 0.0649 µM) | 0.0625 (≈ 0.131 µM) | 0.125 (≈ 0.262 µM) | 1 (≈ 2.09 µM) | 32 (≈ 67 µM) | 1 (≈ 2.09 µM) | 0.5 (≈ 1.05 µM) | 4 (≈ 8.38 µM) |  |  |  |  |  |
| CN(Cc1ccc(C(F)(F)F)cc1)CC(O)(Cn1cncn1)c1ccc(F)cc1F (stereo not drawn) | 0.031 (≈ 0.0727 µM) | 2 (≈ 4.69 µM) | 1 (≈ 2.35 µM) | 0.25 (≈ 0.586 µM) | 8 (≈ 18.8 µM) | 0.125 (≈ 0.293 µM) | 0.5 (≈ 1.17 µM) |  | 64 (≈ 150 µM) |  |  |  |  |
| CN(Cc1ccc(-n2cnn(Cc3cccc(I)c3)c2=O)cc1)CC(O)(Cn1cncn1)c1ccc(F)cc1F (stereo not drawn) | 0.002 (≈ 0.00304 µM) | 0.008 (≈ 0.0122 µM) | 0.0625 (≈ 0.0951 µM) | 0.25 (≈ 0.38 µM) | 2 (≈ 3.04 µM) | 0.0625 (≈ 0.0951 µM) | 0.25 (≈ 0.38 µM) |  | 64 (≈ 97.3 µM) |  |  |  |  |

Further lines, results first:

| MIC80 (Candida albicans) [µg/mL] | MIC80 (Candida parapsilosis) [µg/mL] | MIC80 (Candida tropicalis) [µg/mL] | MIC80 (Cryptococcus neoformans) [µg/mL] | MIC80 (Aspergillus fumigatus) [µg/mL] | MIC80 (Fonsecaea pedrosoi) [µg/mL] | MIC80 (Trichophyton rubrum) [µg/mL] | MIC80 (Microsporum) [µg/mL] | MIC80 (Sporothrix schenckii) [µg/mL] | MIC80 (Nannizzia gypsea) [µg/mL] | MIC80 (Trichophyton violaceum) [µg/mL] | MIC80 (Trichophyton benhamiae) [µg/mL] | MIC80 (Epidermophyton floccosum) [µg/mL] | SMILES |
| --- | --- | --- | --- | --- | --- | --- | --- | --- | --- | --- | --- | --- | --- |
| 0.032 (≈ 0.0703 µM) | ≤ 0.125 | ≤ 0.125 | ≤ 0.125 | 0.5 (≈ 1.1 µM) | ≤ 0.125 | 0.25 (≈ 0.549 µM) | 1 (≈ 2.2 µM) | 64 (≈ 141 µM) | 32 (≈ 70.3 µM) | 2 (≈ 4.39 µM) | < 0.0625 | < 0.0625 | CN(Cc1ccc(Br)cc1F)CC(O)(Cn1cncn1)c1ccc(F)cc1F (stereo not drawn) |
| 0.016 (≈ 0.0374 µM) | 1 (≈ 2.34 µM) | ≤ 0.125 | ≤ 0.125 | 4 (≈ 9.36 µM) | ≤ 0.125 | ≤ 0.125 | 8 (≈ 18.7 µM) | 32 (≈ 74.9 µM) | 16 (≈ 37.4 µM) | 4 (≈ 9.36 µM) | < 0.0625 | < 0.0625 | CN(Cc1ccc(Cl)c(Cl)c1)CC(O)(Cn1cncn1)c1ccc(F)cc1F (stereo not drawn) |
| 16 (≈ 30.6 µM) | 16 (≈ 30.6 µM) | 4 (≈ 7.66 µM) | 0.5 (≈ 0.957 µM) | 64 (≈ 122 µM) | 0.5 (≈ 0.957 µM) | 0.25 (≈ 0.478 µM) | 8 (≈ 15.3 µM) |  |  |  |  |  | CN(Cc1ccc(NC(=O)c2cccc([N+](=O)[O-])c2)cc1)CC(O)(Cn1cncn1)c1ccc(F)cc1F (stereo not drawn) |
| 0.004 (≈ 0.00665 µM) | 0.06 (≈ 0.0997 µM) | 0.125 (≈ 0.208 µM) | 1 (≈ 1.66 µM) | 32 (≈ 53.2 µM) | 0.125 (≈ 0.208 µM) | 1 (≈ 1.66 µM) |  | 64 (≈ 106 µM) |  |  |  |  | CC(C)c1ccc(C(=O)Cn2ncn(-c3ccc(CN(C)CC(O)(Cn4cncn4)c4ccc(F)cc4F)cc3)c2=O)cc1 (stereo not drawn) |
| 0.008 (≈ 0.0134 µM) | 0.016 (≈ 0.0269 µM) | 0.0625 (≈ 0.105 µM) | 8 (≈ 13.4 µM) | 64 (≈ 107 µM) | 2 (≈ 3.36 µM) | 4 (≈ 6.72 µM) |  | 64 (≈ 107 µM) |  |  |  |  | CN(Cc1ccc(-n2cnn(CC(=O)c3ccc(F)cc3F)c2=O)cc1)CC(O)(Cn1cncn1)c1ccc(F)cc1F (stereo not drawn) |
| 0.002 (≈ 0.0034 µM) | 0.125 (≈ 0.213 µM) | 0.0625 (≈ 0.106 µM) | 0.5 (≈ 0.851 µM) | 8 (≈ 13.6 µM) | 0.0625 (≈ 0.106 µM) | 0.5 (≈ 0.851 µM) |  | 64 (≈ 109 µM) |  |  |  |  | Cc1ccc(C(=O)Cn2ncn(-c3ccc(CN(C)CC(O)(Cn4cncn4)c4ccc(F)cc4F)cc3)c2=O)c(C)c1 (stereo not drawn) |
| 0.002 (≈ 0.00313 µM) | 1 (≈ 1.57 µM) | 0.0625 (≈ 0.0979 µM) | 0.25 (≈ 0.392 µM) | 16 (≈ 25.1 µM) | 0.0625 (≈ 0.0979 µM) | 0.25 (≈ 0.392 µM) |  | 64 (≈ 100 µM) |  |  |  |  | CN(Cc1ccc(-n2cnn(CC(=O)c3ccc(Br)cc3)c2=O)cc1)CC(O)(Cn1cncn1)c1ccc(F)cc1F (stereo not drawn) |
| 0.0625 (≈ 0.122 µM) | 0.25 (≈ 0.488 µM) | 0.5 (≈ 0.977 µM) | 2 (≈ 3.91 µM) | 32 (≈ 62.5 µM) | 2 (≈ 3.91 µM) | 4 (≈ 7.81 µM) | 2 (≈ 3.91 µM) |  |  |  |  |  | CN(Cc1ccc(NC(=O)c2ccccc2Cl)cc1)CC(O)(Cn1cncn1)c1ccc(F)cc1F (stereo not drawn) |
| 0.0625 (≈ 0.104 µM) | 0.5 (≈ 0.829 µM) | 0.25 (≈ 0.414 µM) | ≤ 0.031 | > 64 | ≤ 0.125 | ≤ 0.125 | ≤ 0.125 |  |  |  |  |  | CN(Cc1ccc(NC(=O)c2ccc(I)cc2)cc1)CC(O)(Cn1cncn1)c1ccc(F)cc1F (stereo not drawn) |
